Source: PMC12102218 (Nature Communications, 2025)

Target: T1, ENPP1 (Homo sapiens, UniProt P22413)
T1 sequence (P22413 1-925): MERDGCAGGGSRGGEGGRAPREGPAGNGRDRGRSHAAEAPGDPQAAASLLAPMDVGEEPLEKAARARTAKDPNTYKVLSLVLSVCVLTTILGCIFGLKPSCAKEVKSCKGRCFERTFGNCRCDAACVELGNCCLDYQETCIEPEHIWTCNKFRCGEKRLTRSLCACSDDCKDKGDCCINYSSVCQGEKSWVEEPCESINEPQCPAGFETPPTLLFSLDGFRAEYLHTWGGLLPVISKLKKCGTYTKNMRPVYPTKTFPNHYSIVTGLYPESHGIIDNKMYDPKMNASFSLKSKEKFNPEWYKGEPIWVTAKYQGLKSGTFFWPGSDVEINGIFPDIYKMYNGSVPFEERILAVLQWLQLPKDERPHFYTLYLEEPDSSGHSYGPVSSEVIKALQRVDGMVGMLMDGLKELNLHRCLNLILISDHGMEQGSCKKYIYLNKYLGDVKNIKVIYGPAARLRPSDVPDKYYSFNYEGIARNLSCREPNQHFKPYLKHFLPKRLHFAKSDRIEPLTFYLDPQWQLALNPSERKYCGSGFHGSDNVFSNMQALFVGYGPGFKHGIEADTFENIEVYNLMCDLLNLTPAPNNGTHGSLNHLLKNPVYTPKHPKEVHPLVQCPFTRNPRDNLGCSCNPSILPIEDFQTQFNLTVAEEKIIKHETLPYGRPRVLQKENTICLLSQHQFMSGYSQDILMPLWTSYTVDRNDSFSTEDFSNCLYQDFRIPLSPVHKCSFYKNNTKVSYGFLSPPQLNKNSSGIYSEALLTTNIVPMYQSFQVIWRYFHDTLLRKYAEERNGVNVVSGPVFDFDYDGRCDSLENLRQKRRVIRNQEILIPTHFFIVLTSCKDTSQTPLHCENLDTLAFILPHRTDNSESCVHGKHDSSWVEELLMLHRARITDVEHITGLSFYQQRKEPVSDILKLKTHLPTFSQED
Experiment: ENPP1 enzymatic assay, cGAMP hydrolysis
Format: biochemical

IC50: 0.142 µM
Substance: QS1
